Measurements from paper PMC6837341, “Evolutionarily conserved susceptibility of the mitochondrial respiratory chain to SDHI pesticides and its consequence on the impact of SDHIs on human cultured cells” (PLoS ONE, 2019).
Read-outs that look alike come from different tables or passages of the source.

Experiments:
Type in all cases: biochemical
[1] = target: T1, quinol cytochrome c reductase (CIII) (Apis mellifera, UniProt P34845); test: QCCR activity, honeybee crude mitochondria
T1 sequence (P34845 1-383): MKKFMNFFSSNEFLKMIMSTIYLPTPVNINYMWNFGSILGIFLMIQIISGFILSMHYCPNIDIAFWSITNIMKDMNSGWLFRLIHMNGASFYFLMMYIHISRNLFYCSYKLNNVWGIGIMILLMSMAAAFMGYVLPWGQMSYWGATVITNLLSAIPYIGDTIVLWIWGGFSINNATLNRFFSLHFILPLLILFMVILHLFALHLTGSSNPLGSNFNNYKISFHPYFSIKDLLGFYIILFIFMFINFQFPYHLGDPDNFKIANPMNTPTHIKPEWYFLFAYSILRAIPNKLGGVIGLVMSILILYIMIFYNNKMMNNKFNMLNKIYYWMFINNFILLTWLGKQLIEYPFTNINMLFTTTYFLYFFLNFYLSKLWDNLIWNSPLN
Procedure: A. mellifera individuals (n = 5) were a kind gift from Jacques Kemp (beekeeper; Saint-Rémy-lès-Chevreuse, Yvelines, France). Whole bodies of individuals frozen in dry ice, except heads, were homogenized using a 1 ml glass-glass Potter-Elvehjem homogenizer in an ice-cold medium consisting of 20 mM Tris (pH 7.2), 0.25 M sucrose, 40 mM KCl, 2 mM EGTA, and 1 mg/ml BSA. The homogenate was centrifuged at 1,500 g for 5 min. The mitochondria contained in the supernatant were spun down at 10,000 g for 10 min. The pellet of crude mitochondria was distributed as 20-μl aliquots and kept frozen at -80°C.
(§1) RC enzyme activities were spectrophotometrically measured using a pseudo-double-wavelength spectrophotometer (Cary 60, Agilent). Malonate-sensitive succinate quinone dichlorophenolindophenol (DCPIP) reductase (SQDR), as an indicator of the activity of the isolated SDH enzyme (isolated CII), and glycerol-3-phosphate quinone DCPIP reductase (GQDR), as a measure of the activity of the isolated glycerol-3-phosphate dehydrogenase (G3PDH), were assayed as previously described. […] With this aim, we measured the malonate-sensitive succinate cytochrome c reductase (SDH+CIII), glycerol-3-phosphate cytochrome c reductase (G3PDH+CIII) and antimycin-sensitive quinol cytochrome c reductase (CIII) as previously described.
(§2) The effects of eight different SDHIs (up to 500 μM; S2 Fig) were determined on four different biological materials. Because IC50 are known to be affected by the actual absolute activity of the tested enzyme, these IC50 were quantified using similar levels of SDH enzyme activity during the assay. IC50 values were determined using the AAT Bioquest IC50 calculator tool (https://www.aatbio.com/tools/ic50-calculator).

[2] = target: T2, glycerol-3-phosphate cytochrome c reductase (G3PDH+CIII) (Homo sapiens, UniProt P00156); test: Glycerol-3-phosphate cytochrome c reductase (GCCR) activity, freeze-thawed HEK cells
T2 construct: the pellets were permeabilized by two freeze-thaw cycles before enzyme assays; endogenous in cells; host or cells: HEK293, freeze-thawed cell pellets
Procedure: (§3) The cells were grown in T75 flasks using 10 ml Dulbecco’s modified Eagle's minimal essential medium (DMEM) either containing 1 or 4.5 g/l glucose, 4 mM glutamine (glutamax; Gibco Thermo Fisher Scientific, MA), 2 mM pyruvate and 200 μM uridine (permissive medium, thereafter referred as GlucoMax) or lacking glucose, pyruvate and uridine but containing 4 mM glutamine (nonpermissive medium, thereafter referred as MitoMax; S1 Table). All media were supplemented with 10% fetal calf serum and 100 U/mL each penicillin and streptomycin. HEK293 human embryonic kidney cells were cultured in DMEM containing 4.5 g/L glucose, 4 mM glutamine, 10% fetal calf serum, 200 μM uridine, 2 mM pyruvate, and 100 U/mL each penicillin and streptomycin [9]. Cell pellets (1,500 g for 5 min) were kept frozen (-80°C), and for biochemical studies, the pellets were permeabilized by two freeze-thaw cycles before enzyme assays.
(§4) RC enzyme activities were spectrophotometrically measured using a pseudo-double-wavelength spectrophotometer (Cary 60, Agilent). Malonate-sensitive succinate quinone dichlorophenolindophenol (DCPIP) reductase (SQDR), as an indicator of the activity of the isolated SDH enzyme (isolated CII), and glycerol-3-phosphate quinone DCPIP reductase (GQDR), as a measure of the activity of the isolated glycerol-3-phosphate dehydrogenase (G3PDH), were assayed as previously described. To study the effect of SDHIs on the RC, we had to take into consideration the fact that these inhibitors act through binding to quinone-binding sites in the RC. Accordingly, we observed that the extent of the inhibitory effects of these substances varies with the addition of exogenous quinones (Fig 1). […] With this aim, we measured the malonate-sensitive succinate cytochrome c reductase (SDH+CIII), glycerol-3-phosphate cytochrome c reductase (G3PDH+CIII) and antimycin-sensitive quinol cytochrome c reductase (CIII) as previously described.
as §2

[3] = target: T3, quinol cytochrome c reductase (CIII) (Homo sapiens, UniProt P00156); test: Antimycin-sensitive quinol cytochrome c reductase (QCCR) activity, freeze-thawed HEK cells
T3 construct: the pellets were permeabilized by two freeze-thaw cycles before enzyme assays; endogenous in cells; host or cells: HEK293, freeze-thawed cell pellets
Procedure: as §3, §4, §2

[4] = target: succinate cytochrome c reductase (SDH+CIII) (Homo sapiens, UniProt O14521+P21912+Q99643); test: Malonate-sensitive succinate cytochrome c reductase (SCCR) activity, freeze-thawed HEK cells; design: the pellets were permeabilized by two freeze-thaw cycles before enzyme assays; endogenous in cells; host or cells: HEK293, freeze-thawed cell pellets; details: no exogenous quinone
Procedure: as §3, §4, §2

[5] = target: succinate cytochrome c reductase (SDH+CIII); test: SCCR activity, earthworm homogenate; details: Lumbricus terrestris homogenate
Procedure: L. terrestris individuals (n = 5) were collected manually in a household compost in Epernon (France 28230) and identified by the person (Paule Bénit) in charge of this compost. Before use, the worms were washed 5 times with 1× phosphate-buffered saline. A fresh homogenate was prepared from the segments located between the prostomium and clitellum of the 5 individuals. Tissues were placed in 500 μl of an ice-cold medium consisting of 20 mM Tris (pH 7.2), 0.25 M sucrose, 40 mM KCl, 2 mM EGTA, and 1 mg/ml BSA and homogenized using a 1-ml glass-glass Potter-Elvehjem homogenizer. Low-speed centrifugation at 1,500 g for 5 min allowed heavy debris to be discarded. The supernatant was distributed as 50-μl aliquots and kept frozen at -80°C.
as §1, §2

[6] = CIII values only indicative, read-out: IC50 QCCR
[7] = Homo sapiens, freeze-thawed HEK cells, read-out: IC50 GCCR
[8] = Homo sapiens, freeze-thawed HEK cells, CIII values only indicative (reduced quinone added), read-out: IC50 QCCR
[9] = read-out: IC50 QCCR, CIII values only indicative

Chain of succinate cytochrome c reductase (SDH+CIII) (Homo sapiens, UniProt O14521+P21912+Q99643) (P21912 29-280): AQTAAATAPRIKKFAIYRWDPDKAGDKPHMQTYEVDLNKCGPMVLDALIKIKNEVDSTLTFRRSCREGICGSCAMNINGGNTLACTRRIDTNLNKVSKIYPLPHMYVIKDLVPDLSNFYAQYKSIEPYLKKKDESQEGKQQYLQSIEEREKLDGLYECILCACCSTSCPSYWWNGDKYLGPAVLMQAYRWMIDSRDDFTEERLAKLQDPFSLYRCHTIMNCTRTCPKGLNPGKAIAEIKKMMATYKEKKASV
Chain of succinate cytochrome c reductase (SDH+CIII) (Homo sapiens, UniProt O14521+P21912+Q99643) (Q99643 30-169): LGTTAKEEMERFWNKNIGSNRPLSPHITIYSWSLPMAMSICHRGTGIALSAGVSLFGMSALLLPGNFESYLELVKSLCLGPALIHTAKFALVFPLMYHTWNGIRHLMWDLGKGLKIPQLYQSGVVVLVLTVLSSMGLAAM
Chain of succinate cytochrome c reductase (SDH+CIII) (Homo sapiens, UniProt O14521+P21912+Q99643) (O14521 57-159): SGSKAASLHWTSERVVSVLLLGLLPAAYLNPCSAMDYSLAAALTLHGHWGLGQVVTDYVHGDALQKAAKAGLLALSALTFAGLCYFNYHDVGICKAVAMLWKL
Chain of succinate cytochrome c reductase (SDH+CIII) (Homo sapiens, UniProt O14521+P21912+Q99643) (P31040 43-664 partner): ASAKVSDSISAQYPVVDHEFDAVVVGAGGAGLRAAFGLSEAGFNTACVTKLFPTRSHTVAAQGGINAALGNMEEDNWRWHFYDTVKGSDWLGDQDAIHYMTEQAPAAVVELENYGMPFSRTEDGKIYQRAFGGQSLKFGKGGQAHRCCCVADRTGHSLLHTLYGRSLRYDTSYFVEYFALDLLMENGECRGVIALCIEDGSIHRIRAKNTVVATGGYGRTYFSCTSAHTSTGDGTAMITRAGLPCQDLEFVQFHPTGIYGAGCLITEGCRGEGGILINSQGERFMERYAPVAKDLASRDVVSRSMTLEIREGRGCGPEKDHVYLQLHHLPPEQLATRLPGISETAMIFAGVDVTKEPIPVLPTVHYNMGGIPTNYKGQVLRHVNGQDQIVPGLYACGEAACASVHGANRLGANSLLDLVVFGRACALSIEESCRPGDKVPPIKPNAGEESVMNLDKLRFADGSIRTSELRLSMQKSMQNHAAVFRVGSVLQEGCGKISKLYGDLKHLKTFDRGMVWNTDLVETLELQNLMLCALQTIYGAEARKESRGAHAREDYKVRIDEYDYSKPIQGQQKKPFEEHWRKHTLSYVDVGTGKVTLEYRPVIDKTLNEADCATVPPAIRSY

SMILES | IC50 [1, 6] | IC50 [2, 7] | IC50 [3, 8] | IC50 ([4]; n ≥ 3, listed as bixafen, read-out: IC50 SCCR) | IC50 ([4]; n ≥ 3, read-out: IC50 SCCR) | IC50 [5] | IC50 [1, 9] | IC50 [2] | IC50 [3] | IC50 ([4]; IC50 SCCR, n ≥ 3) | IC50 ([4]; n ≥ 3, listed as isopyrazam, read-out: IC50 SCCR) | IC50 ([4]; n ≥ 3, listed as penflufen, read-out: IC50 SCCR)
Cn1cc(C(=O)Nc2ccc(F)cc2-c2ccc(Cl)c(Cl)c2)c(C(F)F)n1 [Bixafen, bixafen] | 5.7 µM | 21.1 µM | 15.5 µM | ≤ 1 µM | 0.34 µM | 6 µM |  |  |  |  |  | 
O=C(Nc1ccccc1-c1ccc(Cl)cc1)c1cccnc1Cl [Boscalid, boscalid] |  |  |  |  |  | 0.5 µM | > 500 µM | > 500 µM | > 500 µM | 4.8 µM |  | 
CC(C)Oc1cccc(NC(=O)c2ccccc2C(F)(F)F)c1 [Flutolanil, flutolanil] |  | > 500 µM | > 500 µM |  | 18.7 µM | 0.36 µM | > 500 µM |  |  |  |  | 
Cn1cc(C(=O)Nc2ccccc2-c2cc(F)c(F)c(F)c2)c(C(F)F)n1 [Fluxapyroxad, fluxapyroxad] | 300 µM | > 500 µM | > 500 µM |  | 2.1 µM | 0.71 µM |  |  |  |  |  | 
CC(C)C1C2CCC1c1c(NC(=O)c3cn(C)nc3C(F)F)cccc12 (centres unmarked) [Isopyrazam, isopyrazam] | 87 µM | 51.3 µM | 125 µM |  | 0.63 µM | 0.46 µM |  |  |  |  | ≤ 1 µM | 
Cc1nn(C)c(F)c1C(=O)Nc1ccccc1C(C)CC(C)C (centres unmarked) [Penflufen, penflufen] | > 500 µM | > 500 µM | > 500 µM |  | 1.3 µM | 1.13 µM |  |  |  |  |  | ≤ 1 µM
CC(C)CC(C)c1sccc1NC(=O)c1cn(C)nc1C(F)(F)F (centres unmarked) [Penthiopyrad, penthiopyrad] |  |  |  |  |  | 0.7 µM | 268 µM | 211 µM | 349 µM | 3.7 µM |  | 
